Laboratory results reported in patent publication US20230123334A1, “AMINO LIPID COMPOUND, PREPARATION METHOD THEREFOR, AND APPLICATION THEREOF” (SHENZHEN SHENXIN BIOTECHNOLOGY CO., LTD., priority 2020, published 2023).

Experiments:
Type in all cases: cell-based
Hela cells [1] = assay: Transfection of Hela cell line, DNA vectors; conditions: 75 ng plasmid DNA, GFP cells / total cells
In short: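 Amino lipid/DOPE liposomes in sodium acetate pH 5.6 were complexed with 75 ng psin-EGFP-IRES-Puro plasmid for 30 min at room temperature, then mixed with 3-5×10^4 Hela cells in DMEM/10% FBS at 37° C. Hoechst stain after 20-24 h, imaging after a further 20-24 h. Efficiency = GFP-positive cells / total nuclei.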

Hela cells [2] = assay: Transfection of Hela cell line, mRNA vectors; conditions: 50 ng EGFP mRNA per well
In short: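 Transfection efficiency was scored as GFP-fluorescent cells over Hoechst-stained total nuclei, with Lipofectamine2000 as reference reagent. Each well of HeLa cells, grown in DMEM plus 10% FBS, received 50 ng EGFP mRNA.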

MCF7 cells [3] = assay: Transfection of MCF7 cell line, DNA vectors; set-up: concentration or dose not given beside the values; conditions: plasmid DNA, GFP cells / total cells
In short: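 Read-out: GFP-positive cells as % of all Hoechst-stained nuclei after 96-well transfection of MCF7 cells grown in serum-supplemented DMEM. Positive control was Lipofectamine2000, used per manufacturer's protocol.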

MCF7 cells [4] = assay: Transfection of MCF7 cell line, mRNA vectors; conditions: 50 ng EGFP mRNA per well
In short: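 Efficiency was scored as the fraction of GFP-fluorescent cells over all Hoechst-counted cells after delivery of 50 ng EGFP mRNA per well. Cells were MCF7 grown in serum-supplemented DMEM, and Lipofectamine2000 served as reference.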

[5] = tested on: embryonic stem cells (hESC2); assay: Screening as DNA vectors in embryonic stem cells, flow cytometry; conditions: 75 ng plasmid DNA, 48 hours after transfection, flow cytometer
Text: (§1) Cell line: embryonic stem cells (hESC2, cultured according to reported methods: Stem Cells, 2005, 23, 544-549)
(§2) Medium: mTeSR1 (STEMCELL)
(§3) Mode of screening: cell transfection on 96-well plates
(§4) Detection (readout): percentage of the number of GFP fluorescent cells relative to the total number of cells. Lipofectamine Stem was used as the positive control.
Method: an 8-channel pipette was used for sample addition. The contents shown were for a single well of a 96-well flat plate.
1. Stem cells were cultured to 3-5×10^4 cells per well in a 96-well plate treated with matrigel.
2. The compound (0.01 mmol) prepared in Example 1 was dissolved in 1 mL of anhydrous ethanol. After ultrasonically dissolved, 10 μL of the resultant amino lipid solution in ethanol was taken and mixed with 5 μL of DOPE solution in ethanol ([…]). The obtained mixture was then added with 35 μL of 0.2 M sodium acetate buffer (pH 5.6), and vortexed at a constant rotating speed for 30 s. Then, 4 μL was taken from the obtained product and added to 46 μL of 0.02 M sodium acetate buffer (pH 5.6), and vortexed at a constant rotating speed for 30 s to form a liposome solution. 5 μL of this liposome solution was mixed with 75 ng of plasmid DNA (pSin-EGFP-IRES-Puro) dissolved in 5 μL of 0.02 M sodium acetate buffer, and allowed to stay at room temperature for 30 min to form a lipid/DNA transfection complex.
3. 10 μL of the lipid/DNA transfection complex was incubated at room temperature for 30 min, followed by addition of 90 μL mTeSR1 medium was added and mixing with a pipette. 100 μL of the mixture was added to separate wells of a 96-well culture plate and placed in an incubator containing 5% CO2 at 37° C.
4. 48 hours after transfection, the cells were digested with 0.05% Trypsin-EDTA. The cells were resuspended in a PBS buffer and filtered. The cell suspension was placed in a flow cytometer and the number of GFP-expressing cells in no less than 2000 cells was measured so as to obtain the absolute efficiency of cell transfection. The relative efficiency of cell transfection was obtained by comparing the cell transfection efficiency with the positive control Lipofectamine Stem.

[6] = tested on: embryonic stem cells (hESC2); assay: Screening as mRNA vectors in embryonic stem cells; conditions: 50 ng EGFP mRNA per well
Protocol: as §1, §2
Mode of screening: cell transfection on 96-well plate
as §4
Method: the experimental method was basically the same with Example 10, and the mass of EGFP mRNA for transfection was 50 ng per well.

cardiomyocytes [7] = assay: Screening as DNA vectors in cardiomyocytes; set-up: concentration or dose not given beside the values; conditions: method as Example 4
Protocol: Cell line: cardiomyocytes (obtained from induced differentiation of hESC according to reported methods: J. Mol. Cell. Cardiol. 2011, 51, 288-298)
(§5) Medium: DMEM supplemented with 10% fetal bovine serum (Invitrogen)
as §3
(§6) Detection (readout): percentage of the number of GFP fluorescent cells relative to the total number of cells (the total number of cells was determined using nucleus dye Hoechst). Lipofectamine Stem (Invitrogen) was used as the positive control, according to the manufacturer's instructions.
Method: the experimental method was basically the same with Example 4.

cardiomyocytes [8] = assay: Screening as mRNA vectors in cardiomyocytes; conditions: 50 ng EGFP mRNA per well
Protocol: Cell line: cardiomyocytes (obtained from induced differentiation of hESC according to reported methods: J Mol. Cell. Cardiol. 2011, 51, 288-298)
as §5, §3, §6
Method: the experimental method was basically the same with Example 4, and the mass of EGFP mRNA for transfection was 50 ng per well.

SMILES | Absolute DNA transfection efficiency in Hela cells (Hela cells [1]) | Absolute mRNA transfection efficiency in Hela cells (Hela cells [2]) | Absolute DNA transfection efficiency in MCF7 cells (MCF7 cells [3]) | Absolute mRNA transfection efficiency in MCF7 cells (MCF7 cells [4]) | Absolute DNA transfection efficiency in embryonic stem cells [5] | Absolute mRNA transfection efficiency in embryonic stem cells [6] | Absolute DNA transfection efficiency in cardiomyocytes (cardiomyocytes [7]) | Absolute mRNA transfection efficiency in cardiomyocytes (cardiomyocytes [8])
CCCCCCCCCCCSc1nc(NCCCN(C)C)nc(SCCCCCCCC)n1 [Compound S8S11D6] | 3.9% | 3.9% | 56.8% | 46.3% | 1.6% | 10.3% | 1.0% | 18.4%
CCCCCCCCCCCSc1nc(NCCN2CCCC2)nc(SCCCCCCCC)n1 [Compound S8S11D3] | 3.3% | 3.3% | 2.7% | 20.4% | 0.7% | 21.4% | 1.9% | 21.0%
CCCCCCCCCCCCSc1nc(NCCN2CCCC2)nc(SCCCCCCCC)n1 [Compound S8S12D3] | 5.5% | 5.5% | 1.9% | 6.7% | 1.5% | 17.9% | 0.3% | 36.7%
CCCCCCCCCCCCNc1nc(NCCCN(C)C)nc(SCCCCCCCCC)n1 [Compound S9N12D6] | 35.5% | 35.5% | 21.8% | 22.4% | 1.9% | 6.1% | 1.7% | 5.3%
CCCCCCCCCCCNc1nc(NCCN2CCN(C)CC2)nc(SCCCCCCCCC)n1 [Compound S9N11D5] | 22.5% | 22.5% | 17.8% | 18.0% | 3.0% | 3.3% | 2.5% | 18.0%
CCCCCCCCCCCSc1nc(NCCCCCCCC)nc(NCCCN2CCN(C)CC2)n1 [Compound S11N8D9] | 11.7% | 11.9% | 20.9% | 42.3% | 3.6% | 34.8% | 0.1% | 25.8%
CCCCCCCCCCCNc1nc(NCCCN2CCN(C)CC2)nc(SCCCCCCCC)n1 [Compound S8N11D9] | 31.9% | 31.9% | 45.4% | 6.6% | 0.5% | 1.0% | 0.6% | 31.6%
CCCCCCCCCCCSc1nc(NCCCCCCCC)nc(NCCCN2CCOCC2)n1 [Compound S11N8D8] | 6.1% | 6.1% | 0.1% | 7.8% | 0.0% | 1.3% | 1.2% | 0.9%
CCCCCCCCCCCSc1nc(NCCCCCCCC)nc(NCCN2CCCC2)n1 [Compound S11N8D3] | 12.9% | 12.9% | 17.7% | 8.6% | 4.3% | 12.8% | 0.2% | 24.5%
CCCCCCCCCCCSc1nc(NCCCCCCCCC)nc(NCC2CCN(C)CC2)n1 [Compound S11N9D10] | 16.2% | 16.2% | 48.7% | 36.6% | 0.5% | 39.3% | 16.4% | 29.6%
CCCCCCCCCCCSc1nc(NCCCCCCCC)nc(NCC2CCN(C)CC2)n1 [Compound S11N8D10] | 16.7% | 16.7% | 25.6% | 38.9% | 12.6% | 35.4% | 6.6% | 41.7%
CCCCCCCCCCCSc1nc(NCCCN2CCOCC2)nc(SCCCCCCCC)n1 [Compound S8S11D8] | 7.6% | 7.6% | 12.3% | 7.0% | 1.0% | 1.6% | 2.2% | 0.7%
CCCCCCCCCCCSc1nc(NCCCN2CCN(C)CC2)nc(SCCCCCCCC)n1 [Compound S8S11D9] | 6.8% | 6.8% | 59.8% | 34.9% | 1.0% | 18.1% | 0.8% | 25.5%
CCCCCCCCCCCSc1nc(NCC2CCN(C)CC2)nc(SCCCCCCCC)n1 [Compound S8S11D10] | 21.8% | 21.8% | 37.2% | 40.4% | 0.7% | 37.4% | 1.4% | 20.8%
